These results are taken from patent US20090155236A1, “Peptide sequence for modulation of delta protein kinase c” (NATIONAL INSTITUES OF HEALTH (NIH), U.S. DEPT OF HEALTH AND …, priority 2004, published 2009).

Positions of bridges follow the written chain, without caps; N, C: chain ends. No end group written: not given here.

Experiment [1] addresses T1, delta PKC (Homo sapiens, UniProt Q05655).
T1 construct: purchased Panvera LLC, now Invitrogen Corporation
Briefly: In vitro kinase assay, histone phosphorylation by delta PKC. The format is biochemical. As to the method:
In another study, the ability of annexin V to increase the catalytic activity of delta PKC in vitro was evaluated. Full-length, recombinant delta PKC (SEQ ID NO:3) and epsilon PKC (SEQ ID NO:6) were separately incubated in the presence of kinase buffer, ATP, or histone, as described in Example 3. Activators of PKC, phosphatidylserine (PS) and diacylglycerol (DAG), were added along with annexin V, JTV-519, a 1,4 benzothiazepine derivative that activates delta PKC (Inagaki, K. et al., Circulation, 101:797 (2000)), or a mixture of annexin V and JTV-519.
200 ng of pure delta PKC or epsilon PKC (Panvera LLC, now Invitrogen Corporation, Carlsbad, Calif.) were incubated in 100 μL kinase buffer (20 mM Tris pH 7.4, 50 mM MgCl2, 0.3 μCi/reaction [γ-^32P]ATP (Amersham Biosciences), 9 μM/reaction ATP (Sigma), 30 μg/reaction myelin basic protein or histone A1 (Sigma); 100 μM lipid vesicle mixture (90% phosphatidylserine (PS): 10% diacylglycerol (DAG)), 1 mM CaCl2, 1 μM JTV519, and/or 20 ng of Annexin V/reaction were added, where applicable. The kinase reaction was stopped by the addition of SDS sample buffer, and extent of histone phosphorylation assessed after separation on 15% SDS-PAGE and transfer onto nitrocellulose membrane by autoradiography.

Experiment [2] has as its target T2, annexin V and delta PKC interaction (Homo sapiens, UniProt Q05655).
T2 construct: endogenous in cells; host or cells: cardiomyocytes
The experiment in a line: Cross-linking immuno-precipitation of delta PKC probed with anti-annexin V in cardiac myocytes. As to conditions: cardiac myocytes stimulated with the agent, FIG. 5. The format is cell-based. As to the method: Example 4 describes a study where cardiac myocytes were stimulated with a selected agent and then immuno-precipitated with anti-delta PKC after cross-linking. The cell lysates were then probed with anti-annexin V and visualized with ECL Western blotting. […] The stimulation agent was applied to the cells for times of between 30 seconds to 20 minutes, prior to lysing.
Cardiomyocytes were treated with phorbol 12-myristate 13-acetate (PMA; 10 nM), hydrogen peroxide (H2O2; 5 mM), JTV-519, or delta V1-1 peptide (1 μM) and JTV-519 (1 μM), for times of between 30 seconds to 5 minutes. After the lapsed time, the cells were washed with cold PBS, and homogenized on ice with trituration in homogenization buffer (20 mM Tris pH 7.4, 2 mM EDTA, 10 mM EGTA, 0.25M sucrose, 12 mM O-mercaptoethanol, and protease inhibitor cocktail (Sigma), 0.1% formaldehyde. After 30 min at 4° C., the lysates were quenched with 0.14M glycine for 20 min at 4° C., and samples spun at 14K rpm at 4° C. The supernatant was incubated with 1 μg anti-delta PKC antibody (Santa Cruz Biotechnology, Inc., Santa Cruz, Calif.) for 1 hour, then with proteinG beads (Invitrogen Corporation) for 3 hours at 4° C. The beads where then washed with wash buffer (20 mM Tris pH 7.5, 2 mM EDTA, 100 mM NaCl, 12 mM β-mercaptoethanol, 0.1% Triton), and separated on 7.5% SDS-PAGE, transferred to nitrocellulose, and probed with anti-annexin V (Santa Cruz Biotechnology, Inc., Santa Cruz, Calif.), followed by visualization by ECL Western blotting.

For experiment [3], the target named is T3, delta PKC/annexin V interaction (Cricetulus griseus, UniProt A0A8C2N0P5).
T3 construct: endogenous in cells; host or cells: CHO cells
The experiment in a line: Cross-linking co-immunoprecipitation of annexin V and delta PKC in CHO cells. The format is cell-based. As to the method: A similar study was conducted to further evaluate the in vitro, intracellular interactions of delta PKC and annexin V. Cellular interactions of delta PKC/annexin V interaction in CHO cells were stabilized with a cross-linking agent, after stimulation with 10 nM PMA. The complexes formed with delta PKC were then immuno-precipitated and tested for the presence of annexin V. The SDS-PAGE gel is shown in FIG. 6A and a corresponding graph quantifying percent association of annexin V and delta PKC as a function of time is shown in FIG. 6B. […] The interaction is relatively short-lived, and the proteins disassociated after 1 minute of stimulation.
The effect of JTV-519, an activator of delta PKC, on the association of annexin V and delta PKC was also evaluated in this study. Cells were treated with JTV-519, and the association of annexin V and delta PKC was examined using the co-immunoprecipitation procedure described above. […] PMA caused the disassociation of the JTV-induced complex at 30 seconds, the time of maximal PMA-induced association. […] Whereas the cytosolic fraction of the cells contained a steady low level of the complex, the majority of the complex was found in the particulate fraction of the cells, and disappearance from the particulate fraction followed the same time-course as observed in whole cell lysates (compare FIG. 6D bottom panel with FIG. 6B).

Experiment [4] addresses T4, delta PKC (Cricetulus griseus, UniProt A0A8C2N0P5).
T4 construct: endogenous in cells; host or cells: CHO cells
The experiment in a line: Translocation of delta PKC to the membrane fraction of CHO cells upon PMA stimulation. The format is cell-based. As to conditions: CHO cells pretreated 1 μM for 15 minutes, PMA 10 nM for 5 minutes, FIGS. 8A-8B. Here is the method:
The ability of the annexin V peptide to block the intracellular interaction of delta PKC and annexin V was illustrated in the following study. The annexin V peptide (SEQ ID NO: 1) was conjugated to a TAT47-57 carrier peptide (SEQ ID NO:26) through an N-terminal Cys-Cys bond, as previously described (Chen, L. et al., Proc. Natl. Acad. Sci. USA, 98:11114-9 ((2001)). This peptide, identified herein as SEQ ID NO:29 and referred to as TAT-AnxV peptide, was used to pretreat (1 μM for 15 minutes) CHO cells prior to stimulation with PMA (10 nM for 5 minutes). For comparison, the annexin V peptide sequence was modified at the Arg (R) residue with a Glu (E) residue, to form a peptide having the sequence LQANEDPD, identified herein as SEQ ID NO:30. Substitution of E for R confers a charge difference between annexin V and delta PKC. This peptide was also attached to a TAT carrier peptide via N-terminal modification with a Cys-Cys bond. The conjugate is referred to herein as TAT-AnxV(R→E) (SEQ ID NO:31) and is denoted in some figures as “EpAnxV.” Cells were similarly pretreated with TAT-AnxV(R→E), prior to stimulation with PMA. As controls, some cells were left untreated and other cells were exposed only to PMA. […]

The test system of another experiment is isolated rat hearts. Briefly: Ex vivo ischemia/reperfusion in isolated rat hearts. As to conditions: for infarct size: treated 10 minutes prior to 30 minutes ischemia, 60 minutes reperfusion, FIG. 9A. As to the method:
The physiologic impact of disruption of the delta PKC-annexin V complex was evaluated in an ex vivo ischemia/reperfusion study using the annexin V peptide, TAT-AnxV, and its mutant, TAT-AnxV(R→E). As described in Example 7, isolated rat hearts were treated with TAT-AnxV or TAT-AnxV(R→E) for 10 minutes prior to induction of an ischemic episode. The ischemic episode lasted for 30 minutes, at which time flow to the heart was returned for 60 minutes (reperfusion). After the reperfusion period, cardiac effluent was collected and analyzed for creatine phosphokinase (CPK). The hearts were stained and visually inspected for live and dead tissue. Infarct size was measured by taking the average of the dead (white) tissue on both sides of the tissue slice.
A similar study was conducted, except rather than pretreating the isolated hearts with the annexin V peptide, the peptide was administered after the ischemic event and during the initial 10 minutes of the reperfusion period. Hearts were similarly treated with the mutant peptide, TAT-AnxV(R→E).
Rats were anesthetized and their hearts were rapidly removed and cannulated via the aorta for retrograde perfusion (Colbert, M. et al., J. Clin. Invest., 100:1958 (1997)). The hearts were left untreated, or were pretreated with the annexin V peptide, conjugated to TAT, (TAT-AnxV, SEQ ID NO:29) or with its mutant, TAT-AnxV(R→E) (SEQ ID NO:31), for 10 minutes prior to a 30 minutes of ischemia. Ischemia was induced by interrupting flow for 30 minutes and then reestablishing flow for 60 minutes (reperfusion). Cardiac effluent was collected for 15 minutes after reperfusion and assayed for creatine phosphokinase (CPK) using a Sigma kit. Hearts were stained with 2,3,5-triphenyltetrazolium chloride ([…]) to visualize live tissue (red) and dead tissue (white), and infarct size was measured by taking the average of the white area on both sides of the tissue slice (n=3, p<0.05). Results are shown in FIGS. 9A-9B and FIGS. 10A-10B.

T3 sequence (A0A8C2N0P5 1-676): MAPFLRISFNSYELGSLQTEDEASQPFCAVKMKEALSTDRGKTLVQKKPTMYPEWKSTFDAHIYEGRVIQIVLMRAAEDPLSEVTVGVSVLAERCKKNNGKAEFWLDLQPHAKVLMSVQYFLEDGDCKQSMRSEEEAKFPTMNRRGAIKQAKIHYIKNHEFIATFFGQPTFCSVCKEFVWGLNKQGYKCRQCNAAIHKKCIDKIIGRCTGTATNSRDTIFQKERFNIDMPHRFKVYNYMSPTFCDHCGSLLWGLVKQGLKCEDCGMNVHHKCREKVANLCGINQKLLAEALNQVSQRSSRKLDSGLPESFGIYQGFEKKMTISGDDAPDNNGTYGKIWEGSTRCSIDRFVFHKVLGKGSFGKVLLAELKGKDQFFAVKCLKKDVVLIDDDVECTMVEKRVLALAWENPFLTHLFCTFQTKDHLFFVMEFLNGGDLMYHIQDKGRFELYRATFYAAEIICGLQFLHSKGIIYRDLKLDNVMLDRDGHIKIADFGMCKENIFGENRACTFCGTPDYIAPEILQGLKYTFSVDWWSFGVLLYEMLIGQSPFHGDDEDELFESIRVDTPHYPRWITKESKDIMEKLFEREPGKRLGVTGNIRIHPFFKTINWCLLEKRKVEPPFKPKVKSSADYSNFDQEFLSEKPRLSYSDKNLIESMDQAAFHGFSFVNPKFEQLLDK
T3 sequence (G3I5A4 1-321 partner): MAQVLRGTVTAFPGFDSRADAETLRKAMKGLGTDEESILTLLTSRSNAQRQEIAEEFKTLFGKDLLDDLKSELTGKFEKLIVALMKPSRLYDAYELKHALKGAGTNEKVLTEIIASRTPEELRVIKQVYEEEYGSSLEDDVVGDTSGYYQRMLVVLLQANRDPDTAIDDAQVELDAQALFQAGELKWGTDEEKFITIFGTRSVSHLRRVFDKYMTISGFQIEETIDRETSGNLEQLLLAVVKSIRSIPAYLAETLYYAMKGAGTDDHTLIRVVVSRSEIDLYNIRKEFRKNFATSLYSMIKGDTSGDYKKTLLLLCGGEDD
T4 sequence (A0A8C2N0P5 1-676): as the sequence (A0A8C2N0P5 1-676) above
T1 sequence (Q05655 whole entry): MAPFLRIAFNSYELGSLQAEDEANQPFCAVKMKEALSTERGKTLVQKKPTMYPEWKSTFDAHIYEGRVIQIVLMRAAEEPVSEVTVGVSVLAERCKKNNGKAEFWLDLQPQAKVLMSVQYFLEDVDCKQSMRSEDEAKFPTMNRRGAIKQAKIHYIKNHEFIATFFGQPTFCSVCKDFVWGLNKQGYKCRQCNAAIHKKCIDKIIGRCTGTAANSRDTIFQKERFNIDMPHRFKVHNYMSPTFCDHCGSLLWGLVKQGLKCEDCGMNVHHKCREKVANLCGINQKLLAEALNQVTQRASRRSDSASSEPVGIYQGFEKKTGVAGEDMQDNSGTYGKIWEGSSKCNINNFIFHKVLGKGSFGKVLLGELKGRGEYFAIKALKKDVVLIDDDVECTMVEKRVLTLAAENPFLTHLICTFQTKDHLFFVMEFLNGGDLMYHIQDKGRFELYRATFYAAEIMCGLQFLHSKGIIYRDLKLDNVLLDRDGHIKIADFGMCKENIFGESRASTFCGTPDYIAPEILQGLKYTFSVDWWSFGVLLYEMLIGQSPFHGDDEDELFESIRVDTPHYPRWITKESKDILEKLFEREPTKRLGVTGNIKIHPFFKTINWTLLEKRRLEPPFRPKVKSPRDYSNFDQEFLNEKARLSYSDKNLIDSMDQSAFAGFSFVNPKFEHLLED
T2 sequence (Q05655 whole entry): as above

For `COc1ccc2c(c1)CN(C(=O)CCN1CCC(Cc3ccccc3)CC1)CCS2` [JTV-519], the “catalytic activity of delta PKC (histone phosphorylation)” value on delta PKC [1] (in the presence of PS/DAG, FIG. 4A) is given as “about the same extent as observed for delta PKC in the presence of PS/DAG alone”; on delta PKC [1] (in the presence of annexin V and PS/DAG, FIG. 4A Lane 5), “blocked the increased catalytic activity observed with annexin V”. Besides, the “interaction of annexin V and delta PKC” value in experiment [2] is recorded as “greatly enhanced”. The “association of annexin V and delta PKC” value in experiment [3] (basal conditions, FIGS. 6A-B) is “full association”. In experiment [3] (soluble versus particulate fraction, FIG. 6D), the “cellular localization of the delta PKC-annexin V complex” value is reported as “most of the δPKC-annexin V complex remained in the soluble fraction”.
For the molecule “TAT-AnxV(R→E): conjugate of SEQ ID NO:30 joined to a TAT carrier peptide through an N-terminal cysteine-cysteine bond (YGRKKRRQRRRCCLQANEDPD; disulfide 12-13 (inferred))”, the “translocation of delta PKC to the cell membrane” value in the experiment with delta PKC [4] is given as “lost its inhibitory effect on delta PKC translocation”. Besides, the infarct size entry in the experiment with isolated rat hearts is listed as “did not inhibit the delta PKC-induced damage”.
As to “TAT-AnxV: conjugate of SEQ ID NO:1 joined to a TAT carrier peptide through an N-terminal cysteine-cysteine bond (YGRKKRRQRRRCCLQANRDPD; disulfide 12-13 (inferred))”, in the experiment with delta PKC [4], the “translocation of delta PKC to the cell membrane” value is on record as “blocked the translocation of delta PKC”. Moreover, the infarct size entry in the experiment on isolated rat hearts is given as “statistically significant decrease in infarct size”. Besides, the “creatine phosphokinase (CPK) released” value in the experiment with isolated rat hearts (treated 10 minutes prior to ischemia, FIG. 9B) is “reduced level of creatine phosphokinase”.
